Experimental data: patent US20150094294A1, “COMPOUNDS AND METHODS FOR TREATING MALARIA” (Cellceutix Corporation, priority 2012, published 2015)
Values after ≈ are worked out from the molar mass of the structure shown.

Columns and labels:
Format in all cases: cell-based
[1] = Cytotoxicity against HepG2 cells; settings: human
[2] = Cytotoxicity against 3T3 cells; settings: mouse
[3] = test system: P. falciparum 3D7 (chloroquine-sensitive); experiment: Anti-malarial activity, P. falciparum 3D7 culture, 72 hour, DNA content by flow cytometry; settings: Plasmodium falciparum, 3D7, 72 h, synchronized ring-stage parasites
Procedure: Numerous compounds were screened in cultures of the malaria parasite P. falciparum 3D7 (chloroquine-sensitive) and DD2 (chloroquine-resistant). The compounds were also screened for toxixcity against 3T3 cells, HepG2 cells, and in a hemolysis assay. In brief, P. falciparum parasites were cultured in RPMI 1640 (Invitrogen) supplemented with Albumax II (Invitrogen). For synchronization, schizont stage parasites were magnet purified using a SuperMACS™ II Cell Separation Unit (Miltenyi Biotech). For IC50 determinations, synchronized ring-stage parasites were plated at 0.5% parasitemia and 8% hematocrit in 96-well plates at a total volume of 50 μL. Serial dilutions of 2× concentration of the respective compound, ranging from 2.5 μM to 20 nM, were added to the wells to bring the total volume up to 100 μL and 4% hematocrit. Compounds were assayed for a 72 hour period, after which the cultures were fixed with a solution of 4% paraformaldehyde and 0.08% glutaraldhyde in PBS. The cells were then permeabilized with 0.25% Triton X-100, and SYTOX Green Nucleic Acid Stain (Invitrogen) in PBS was added to a final concentration of 5 μM. DNA content, as an indicator of parasitemia, was analyzed on an Accuri C6 Flow Cytometer with C-Sampler. IC50 curves were generated using GraphPad Prism (GraphPad Software).

in vitro = experiment: in vitro
[4] = HepG2 cells, read-out: Cytotoxicity HepG2 EC50
[5] = 3T3 cells, read-out: Cytotoxicity 3T3 EC50

| SMILES | EC50 [1, 4] | EC50 [2, 5] | IC50 [3] | EC50 (in vitro) | EC50 [1] | EC50 [2] | EC50 (in vitro; hemolysis assay, read-out: Cytotoxicity Hemolysis EC50) |
| --- | --- | --- | --- | --- | --- | --- | --- |
| N=C(N)NCCCc1cccc(-c2cncc(-c3cccc(CCCNC(=N)N)c3)c2)c1 [Compound 132] | 456 µM | 323 µM | 0.112 µM | > 1000 µg/mL | – | – | – |
| N=C(N)NCCc1cccc(-c2cncc(-c3cccc(CCNC(=N)N)c3)c2)c1 [Compound 134] | 905 µM | 654 µM | 0.126 µM | > 1000 µg/mL | – | – | – |
| N=C(N)NCCC#Cc1cncc(-c2cccc(-c3cncc(C#CCCNC(=N)N)c3)c2)c1 [Compound 137] | 422 µM | 272 µM | 0.187 µM | > 1000 µg/mL | – | – | – |
| N=C(N)NCCCCCC(=O)Nc1cccc(-c2cc(-c3ccc(NC(=O)CCCCNC(=N)N)cc3)nc(-c3ccccc3)n2)c1 [Compound 139] | 23 µM | 36 µM | 0.43 µM | – | – | – | – |
| N=C(N)NCCCOc1cc(OCCCNC(=N)N)c(-c2ccncc2)cc1-c1ccncc1 [Compound 140] | > 1450 µM | > 1450 µM | 0.602 µM | > 1000 µg/mL | – | – | – |
| NCCC#Cc1cncc(-c2cccc(-c3cncc(C#CCCN)c3)c2)c1 [Compound 142] | 594 µM | 229 µM | 0.795 µM | 538 µg/mL (≈ 1470 µM) | – | – | – |
| NCCCOc1cccc(-n2cc(-c3ccc4ccc(-c5cn(-c6cccc(OCCCN)c6)nn5)cc4c3)nn2)c1 [Compound 152] | 502 µM | 406 µM | 0.0883 µM | 0.8 µg/mL (≈ 1.43 µM) | – | – | – |
| N=C(N)N1CCN(c2ccc(-c3cc(-c4ccc(N5CCN(C(=N)N)CC5)cc4)ncn3)cc2)CC1 [Compound 153] | 453 µM | 311 µM | 0.0771 µM | 116 µg/mL (≈ 239 µM) | – | – | – |
| c1nc(-c2ccc(N3CCNCC3)cc2)cc(-c2ccc(N3CCNCC3)cc2)n1 [Compound 154] | 471 µM | 210 µM | 0.473 µM | 352 µg/mL (≈ 879 µM) | – | – | – |
| NCc1ccc(C(F)(F)F)c(Oc2ccc(S(=O)(=O)c3ccc(Oc4cc(CN)ccc4C(F)(F)F)cc3)cc2)c1 [Compound 156] | 50 µM | 25 µM | 0.258 µM | 9 µg/mL (≈ 15.1 µM) | – | – | – |
| N=C(N)NCCCCC(=O)Nc1cc(C(F)(F)F)cc(NC(=O)c2cc(C(=O)Nc3cc(C(F)(F)F)cc(NC(=O)CCCCNC(=N)N)c3SCCNC(=O)CN)ncn2)c1SCCNC(=O)CN [Compound 160] | 224 µM | 66 µM | 0.925 µM | 250 µg/mL (≈ 242 µM) | – | – | – |
| N=C(N)NCCCCC(=O)Nc1cccc(NC(=O)c2cc(C(=O)Nc3cccc(NC(=O)CCCCNC(=N)N)c3SCCN)ncn2)c1SCCN [Compound 161] | 676 µM | 697 µM | 0.939 µM | – | – | – | – |
| O=S(=O)(c1ccc(Oc2cc(NC3CCNCC3)cc(C(F)(F)F)c2)cc1)c1ccc(Oc2cc(NC3CCNCC3)cc(C(F)(F)F)c2)cc1 [Compound 163] | 98 µM | 60 µM | – | – | – | – | – |
| N=C(N)NCCc1ccc(C(F)(F)F)cc1NC(=O)c1cc(C(=O)Nc2cc(C(F)(F)F)ccc2CCNC(=N)N)ncn1 [Compound 176] | 608 µM | 523 µM | 0.629 µM | 314 µg/mL (≈ 503 µM) | – | – | – |
| NCCCOc1cccc(-n2cc(-c3cccc(-c4cn(-c5cccc(OCCCN)c5)nn4)c3)nn2)c1 [Compound 180] | 78 µM | 40 µM | 0.641 µM | 63 µg/mL (≈ 123 µM) | – | – | – |
| COc1cc(SCCN)c(C(F)(F)F)cc1NC(=O)c1cc(C(=O)Nc2cc(C(F)(F)F)c(SCCN)cc2OC)nc(SCCN)n1 [Compound 183] | 739 µM | 694 µM | 0.383 µM | 5 µg/mL (≈ 6.76 µM) | – | – | – |
| COc1cc(SCCNC(=N)N)c(C(F)(F)F)cc1NC(=O)c1cc(C(=O)Nc2cc(C(F)(F)F)c(SCCNC(=N)N)cc2OC)nc(SCCNC(=N)N)n1 [Compound 184] | > 1000 µM | 478 µM | 0.129 µM | 4 µg/mL (≈ 4.62 µM) | – | – | – |

| SMILES | EC50 [1, 4] | EC50 [2, 5] | IC50 [3] | EC50 (in vitro) | EC50 [1] | EC50 [2] | EC50 (in vitro; hemolysis assay, read-out: Cytotoxicity Hemolysis EC50) |
| --- | --- | --- | --- | --- | --- | --- | --- |
| N#Cc1cccc(C(=O)Nc2cc(C(F)(F)F)cc(NC(=O)c3cc(C(=O)Nc4cc(C(F)(F)F)cc(NC(=O)c5cccc(C#N)c5)c4O[C@@H]4CCNC4)ncn3)c2O[C@@H]2CCNC2)c1 [Compound 186] | > 1000 µM | 63 µM | 0.177 µM | 107 µg/mL (≈ 117 µM) | – | – | – |
| NCCSc1ccc(NC(=O)c2cc(C(=O)Nc3ccc(SCCN)c(C(F)(F)F)c3)ncn2)cc1C(F)(F)F [Compound 188] | 9 µM | 1 µM | 0.137 µM | 4 µg/mL (≈ 6.62 µM) | – | – | – |
| NCCc1cccc(NC(=O)c2cccc(C(=O)Nc3cccc(CCN)c3)n2)c1 [Compound 191] | > 1000 µM | > 1000 µM | 0.458 µM | > 1000 µg/mL | – | – | – |
| NCCSc1ccc(NC(=O)c2cc(C(=O)Nc3ccc(SCCN)cc3)ncn2)cc1 [Compound 192] | > 1000 µM | 953 µM | 0.182 µM | 32 µg/mL (≈ 68.3 µM) | – | – | – |
| CN1CCN(c2ccc(NC(=O)c3cc(C(=O)Nc4ccc(N5CCN(C)CC5)cc4)ncn3)cc2)CC1 [Compound 212] | > 1000 µM | > 1000 µM | > 0.1 µM | – | – | – | – |
| N=C(N)N1CC=C(c2ccc(NC(=O)c3cc(C(=O)Nc4ccc(C5=CCN(C(=N)N)CC5)cc4)ncn3)cc2)CC1 [Compound 219] | > 1000 µM | 919 µM | – | – | – | – | – |
| CN1CCN(c2ccc(-c3cc(-c4ccc(N5CCN(C)CC5)cc4)ncn3)cc2)CC1 [Compound 278] | > 1000 µM | > 1000 µM | > 0.1 µM | – | – | – | – |
| NCCCn1c2ccc(C3=CCNCC3)cc2c2cc(C3=CCNCC3)ccc21 [Compound 288] | – | – | – | – | > 1000 µM | > 1000 µM | > 1000 µg/mL |
| N=C(N)NCCCn1c2ccc(C3=CCNCC3)cc2c2cc(C3=CCNCC3)ccc21 [Compound 290] | – | – | > 0.1 µM | – | > 1000 µM | > 1000 µM | – |
| N=C(N)N1CCN(c2ccc3sc4ccc(N5CCN(C(=N)N)CC5)cc4c3c2)CC1 [Compound 292] | > 1000 µM | 710 µM | 0.088 µM | – | – | – | – |
| CCn1c2ccc(N3CCN(C(=N)N)CC3)cc2c2cc(N3CCN(C(=N)N)CC3)ccc21 [Compound 294] | > 1000 µM | > 1000 µM | > 0.1 µM | – | – | – | – |
| COc1cc(OC)c(C(=O)Nc2cc(C(F)(F)F)cc(NC(=O)c3cccc(C#N)c3)c2SCCN)cc1C(=O)Nc1cc(C(F)(F)F)cc(NC(=O)c2cccc(C#N)c2)c1SCCN [Compound 300] | 848 µM | 848 µM | – | – | – | – | – |
| COc1cccc(C(=O)Nc2cc(C(F)(F)F)cc(NC(=O)c3cc(C(=O)Nc4cc(C(F)(F)F)cc(NC(=O)c5cccc(OC)c5)c4SCCN)ncn3)c2SCCN)c1 [Compound 309] | > 1000 µM | > 1000 µM | 0.079 µM | – | – | – | – |
| COc1ccc(C(=O)Nc2cc(C(F)(F)F)cc(NC(=O)c3cc(C(=O)Nc4cc(C(F)(F)F)cc(NC(=O)c5ccc(OC)c(OC)c5)c4SCCN)ncn3)c2SCCN)cc1OC [Compound 312] | > 1000 µM | > 10000 µM | – | 6 µg/mL (≈ 6.23 µM) | – | – | – |
| COc1ccc(C(=O)Nc2cc(C(F)(F)F)cc(NC(=O)c3cc(C(=O)Nc4cc(C(F)(F)F)cc(N)c4SCCN)ncn3)c2SCCN)cc1OC [Compound 313] | 545 µM | 92 µM | – | 14 µg/mL (≈ 17.5 µM) | – | – | – |
| NCCSc1c(NC(=O)c2cc(C(=O)Nc3cc(C(F)(F)F)cc(NC(=O)c4ccc(Cl)cc4Cl)c3SCCN)ncn2)cc(C(F)(F)F)cc1NC(=O)c1ccc(Cl)cc1Cl [Compound 314] | 827 µM | > 1000 µM | – | – | – | – | – |
| NCCSc1c(N)cc(C(F)(F)F)cc1NC(=O)c1cc(C(=O)Nc2cc(C(F)(F)F)cc(NC(=O)c3cccnc3)c2SCCN)ncn1 [Compound 316] | 41 µM | 33 µM | – | 22 µg/mL (≈ 29.7 µM) | – | – | – |
